This test has as its target T1, human NEP (Homo sapiens, UniProt P08473).
T1 construct: purchased R&D Systems, Minneapolis, Minn; 1182-ZN
Nature of the test: In vitro enzyme inhibition assay at human NEP (fluorogenic peptide substrate). The settings on record: recombinant human NEP; substrate Mca-D-Arg-Arg-Leu-Dap-(Dnp)-OH 10 μM; 37° C.; values given as ranges; read-out: pKi values at human NEP (converted). In kind it is biochemical. An outline of the steps:
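Recombinant human NEP pre-incubated 30 min at 37 °C with compound (10 μM to 20 pM), then 10 μM Mca-D-Arg-Arg-Leu-Dap-(Dnp)-OH in 50 mM HEPES pH 7.5, 100 mM NaCl, 0.01% Tween-20, 10 μM ZnSO4. Stopped after 20 min with acetic acid, fluorescence read at 320/405 nm; Ki from nonlinear fit, reported as pKi.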
T1 sequence (P08473 whole entry): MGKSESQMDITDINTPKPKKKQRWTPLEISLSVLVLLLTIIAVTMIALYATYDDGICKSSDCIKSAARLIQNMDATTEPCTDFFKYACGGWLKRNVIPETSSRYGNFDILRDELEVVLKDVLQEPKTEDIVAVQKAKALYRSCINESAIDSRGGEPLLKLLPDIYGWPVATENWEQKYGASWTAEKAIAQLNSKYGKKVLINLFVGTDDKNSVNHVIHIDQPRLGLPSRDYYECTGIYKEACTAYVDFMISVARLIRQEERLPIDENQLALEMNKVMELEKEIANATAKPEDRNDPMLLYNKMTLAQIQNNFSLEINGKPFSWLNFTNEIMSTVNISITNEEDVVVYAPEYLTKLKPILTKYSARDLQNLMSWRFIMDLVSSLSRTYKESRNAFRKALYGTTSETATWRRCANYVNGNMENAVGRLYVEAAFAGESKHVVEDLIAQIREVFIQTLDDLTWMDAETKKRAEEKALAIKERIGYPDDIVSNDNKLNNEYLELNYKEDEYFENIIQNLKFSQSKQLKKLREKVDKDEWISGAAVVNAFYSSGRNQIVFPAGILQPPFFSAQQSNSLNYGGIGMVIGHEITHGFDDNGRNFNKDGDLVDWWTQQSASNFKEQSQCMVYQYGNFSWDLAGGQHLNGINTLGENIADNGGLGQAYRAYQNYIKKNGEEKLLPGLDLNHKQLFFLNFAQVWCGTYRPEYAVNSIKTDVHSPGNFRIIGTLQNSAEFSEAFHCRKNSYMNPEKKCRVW
With `O=C(N[C@H](Cc1ccccc1)[C@@H](O)C(=O)O)c1cc(C(=O)O)n(Cc2ccc(Cl)cc2)n1` [Example 8-6, 5-((1R,2R)-1-Benzyl-2-carboxy-2-hydroxy-ethylcarbamoyl)-2-(4-chloro-benzyl)-2H-pyrazole-3-carboxylic acid], the Ki is 0.00126 to 0.01 µM.

As to `O=C(N[C@H](Cc1ccccc1)[C@@H](O)C(=O)O)c1cc(C(=O)O)n(Cc2ccccc2)n1` [Example 8-8, 2-Benzyl-5-((1R,2R)-1-benzyl-2-carboxy-2-hydroxy-ethylcarbamoyl)-2H-pyrazole-3-carboxylic acid], the Ki is 0.00126 to 0.01 µM.

On to `O=C(N[C@H](Cc1ccccc1)[C@@H](O)C(=O)O)c1cc(C(=O)O)n(Cc2ccc(F)cc2)n1` [Example 8-9, 5-((1R,2R)-1-Benzyl-2-carboxy-2-hydroxy-ethylcarbamoyl)-2-(4-fluoro-benzyl)-2H-pyrazole-3-carboxylic acid], for which the Ki is 0.00126 to 0.01 µM.

`O=C(N[C@H](Cc1ccccc1)[C@@H](O)C(=O)O)c1cc(C(=O)O)[nH]n1` [Example 8-10, 5-((1R,2R)-1-Benzyl-2-carboxy-2-hydroxy-ethylcarbamoyl)-2H-pyrazole-3-carboxylic acid]: the Ki is 0.0126 to 0.1 µM.

`O=C(N[C@H](Cc1ccccc1)[C@@H](O)C(=O)O)c1cc([N+](=O)[O-])[nH]n1` [Example 8-11, (2R,3R)-2-Hydroxy-3-[(5-nitro-1H-pyrazole-3-carbonyl)-amino]-4-phenyl-butyric acid]: the Ki was 0.0126 to 0.1 µM.

Consider `CCn1nc(C(=O)N[C@H](Cc2ccccc2)[C@@H](O)C(=O)O)cc1C(=O)O` [Example 8-12, 5-((1R,2R)-1-Benzyl-2-carboxy-2-hydroxy-ethylcarbamoyl)-2-ethyl-2H-pyrazole-3-carboxylic acid], for which the Ki was 0.0126 to 0.1 µM.

`COCCn1nc(C(=O)N[C@H](Cc2ccccc2)[C@@H](O)C(=O)O)cc1C(=O)O` [Example 8-13, 5-((1R,2R)-1-Benzyl-2-carboxy-2-hydroxy-ethylcarbamoyl)-2-(2-methoxy-ethyl)-2H-pyrazole-3-carboxylic acid]: the Ki was 0.0126 to 0.1 µM.

Turning to `O=C(N[C@H](Cc1ccccc1)[C@@H](O)C(=O)O)c1cc(C(=O)O)n(CCO)n1` [Example 8-14, 5-((1R,2R)-1-Benzyl-2-carboxy-2-hydroxy-ethylcarbamoyl)-2-(2-hydroxy-ethyl)-2H-pyrazole-3-carboxylic acid], the Ki is 0.0126 to 0.1 µM.

With `O=C(N[C@H](Cc1ccccc1)[C@@H](O)C(=O)O)c1cc(C(=O)O)n(Cc2cccnc2)n1` [Example 8-15, 5-((1R,2R)-1-Benzyl-2-carboxy-2-hydroxy-ethylcarbamoyl)-2-pyridin-3-ylmethyl-2H-pyrazole-3-carboxylic acid], the Ki is 0.0126 to 0.1 µM.

In the case of `O=C(N[C@H](Cc1ccccc1)[C@@H](O)C(=O)O)c1ccn(Cc2ccc(Cl)cc2)n1` [Example 8-16, (2R,3R)-3-{[1-(4-Chloro-benzyl)-1H-pyrazole-3-carbonyl]-amino}-2-hydroxy-4-phenyl-butyric acid], the Ki was 0.0126 to 0.1 µM.

On to `CN(C)C(=O)c1cc(C(=O)N[C@H](Cc2ccccc2)[C@@H](O)C(=O)O)nn1Cc1ccc(Cl)cc1` [Example 8-17, (2R,3R)-3-{[1-(4-Chloro-benzyl)-5-dimethylcarbamoyl-1H-pyrazole-3-carbonyl]-amino}-2-hydroxy-4-phenyl-butyric acid], for which the Ki was 0.0126 to 0.1 µM.

For `O=C(N[C@H](Cc1ccccc1)[C@@H](O)C(=O)O)c1cc(C(=O)N2CCOCC2)n(Cc2ccc(Cl)cc2)n1` [Example 8-18, (2R,3R)-3-{[1-(4-Chloro-benzyl)-5-(morpholine-4-carbonyl)-1H-pyrazole-3-carbonyl]-amino}-2-hydroxy-4-phenyl-butyric acid], the Ki was 0.0126 to 0.1 µM.

As to `CCCc1cc(C(=O)N[C@H](Cc2ccccc2)[C@@H](O)C(=O)O)nn1Cc1ccccc1` [Example 8-19, (2R,3R)-3-[(1-Benzyl-5-propyl-1H-pyrazole-3-carbonyl)-amino]-2-hydroxy-4-phenyl-butyric acid], the Ki was 0.0126 to 0.1 µM.

On to `COc1ccc(Cn2nc(C(=O)N[C@H](Cc3ccccc3)[C@@H](O)C(=O)O)cc2C2CC2)cc1` [Example 8-20, (2R,3R)-3-{[5-Cyclopropyl-1-(4-methoxy-benzyl)-1H-pyrazole-3-carbonyl]-amino}-2-hydroxy-4-phenyl-butyric acid], for which the Ki is 0.00126 to 0.01 µM.

`COc1ccc(Cn2nc(C(=O)N[C@H](Cc3ccccc3)[C@@H](O)C(=O)O)cc2C2CC2)c(F)c1F` [Example 8-21, (2R,3R)-3-{[5-Cyclopropyl-1-(2,3-difluoro-4-methoxy-benzyl)-1H-pyrazole-3-carbonyl]-amino}-2-hydroxy-4-phenyl-butyric acid]: the Ki is 0.00126 to 0.01 µM.

As for `COc1c(F)c(F)c(Cn2nc(C(=O)N[C@H](Cc3ccccc3)[C@@H](O)C(=O)O)cc2C2CC2)c(F)c1F` [Example 8-22, (2R,3R)-3-{[5-Cyclopropyl-1-(2,3,5,6-tetrafluoro-4-methoxy-benzyl)-1H-pyrazole-3-carbonyl]-amino}-2-hydroxy-4-phenyl-butyric acid], the Ki is no more than 0.001 µM.

For `CSc1ccc(Cn2nc(C(=O)N[C@H](Cc3ccccc3)[C@@H](O)C(=O)O)cc2C2CC2)cc1` [Example 8-23, (2R,3R)-3-{[5-Cyclopropyl-1-(4-methylsulfanyl-benzyl)-1H-pyrazole-3-carbonyl]-amino}-2-hydroxy-4-phenyl-butyric acid], the Ki is 0.0126 to 0.1 µM.

With `CCOc1ncc(Cn2nc(C(=O)N[C@H](Cc3ccccc3)[C@@H](O)C(=O)O)cc2C2CC2)cn1` [Example 8-24, (2R,3R)-3-{[5-Cyclopropyl-1-(2-ethoxy-pyrimidin-5-ylmethyl)-1H-pyrazole-3-carbonyl]-amino}-2-hydroxy-4-phenyl-butyric acid], the Ki is 0.0126 to 0.1 µM.

Turning to `O=C(N[C@H](Cc1ccccc1)[C@@H](O)C(=O)O)c1cnn(-c2ccccn2)c1` [Example 9-1, (2R,3R)-2-Hydroxy-4-phenyl-3-[(1-pyridin-2-yl-1H-pyrazole-4-carbonyl)-amino]-butyric acid], the Ki is 0.0126 to 0.1 µM.

For `O=C(O)C[C@@H](Cc1ccccc1Cl)NC(=O)c1cc(C(=O)O)n(Cc2cccc(Cl)c2)n1` [Example 10, 5-[(R)-2-Carboxy-1-(2-chlorobenzyl)-ethylcarbamoyl]-2-(3-chlorobenzyl)-2H-pyrazole-3-carboxylic Acid], the Ki was 0.00126 to 0.01 µM.

Consider `COc1cccc(Cn2nc(C(=O)N[C@@H](CC(=O)O)Cc3ccccc3Cl)cc2C(=O)O)c1` [Example 11-1, 5-[(R)-2-Carboxy-1-(2-chloro-benzyl)-ethylcarbamoyl]-2-(3-methoxy-benzyl)-2H-pyrazole-3-carboxylic acid], for which the Ki is 0.0126 to 0.1 µM.

With `COc1ccc(Cn2nc(C(=O)N[C@@H](CC(=O)O)Cc3ccccc3Cl)cc2C(=O)O)cc1` [Example 11-2, 5-[(R)-2-Carboxy-1-(2-chloro-benzyl)-ethylcarbamoyl]-2-(4-methoxy-benzyl)-2H-pyrazole-3-carboxylic acid], the Ki is 0.0126 to 0.1 µM.

As for `O=C(O)C[C@@H](Cc1ccccc1Cl)NC(=O)c1cc(C(=O)O)n(Cc2ccc(Cl)cc2)n1` [Example 11-3, 5-[(R)-2-Carboxy-1-(2-chloro-benzyl)-ethylcarbamoyl]-2-(4-chloro-benzyl)-2H-pyrazole-3-carboxylic acid], the Ki was 0.0126 to 0.1 µM.

For the compound `O=C(O)C[C@@H](Cc1ccccc1Cl)NC(=O)c1cc(C(=O)O)n(Cc2ccccc2)n1` [Example 11-4, 2-Benzyl-5-[(R)-2-carboxy-1-(2-chloro-benzyl)-ethylcarbamoyl]-2H-pyrazole-3-carboxylic acid], the Ki was 0.0126 to 0.1 µM.

On to `Cc1ccc(Cn2nc(C(=O)N[C@@H](CC(=O)O)Cc3ccccc3Cl)cc2C(=O)O)cc1` [Example 11-5, 5-[(R)-2-Carboxy-1-(2-chloro-benzyl)-ethylcarbamoyl]-2-(4-methyl-benzyl)-2H-pyrazole-3-carboxylic acid], for which the Ki was 0.0126 to 0.1 µM.

On to `O=C(O)C[C@@H](Cc1ccccc1Cl)NC(=O)c1cc(C(=O)O)n(Cc2cccc(F)c2)n1` [Example 11-6, 5-[(R)-2-Carboxy-1-(2-chloro-benzyl)-ethylcarbamoyl]-2-(3-fluoro-benzyl)-2H-pyrazole-3-carboxylic acid], for which the Ki was 0.0126 to 0.1 µM.

Turning to `O=C(O)C[C@@H](Cc1ccccc1Cl)NC(=O)c1cc(C(=O)O)[nH]n1` [Example 11-7, 5-[(R)-1-Carboxymethyl-2-(2-chloro-phenyl)-ethylcarbamoyl]-2H-pyrazole-3-carboxylic acid], the Ki is 0.0126 to 0.1 µM.

For `CCCCCCn1nc(C(=O)N[C@@H](CC(=O)O)Cc2ccccc2Cl)cc1C(=O)O` [Example 11-8, 5-[(R)-2-Carboxy-1-(2-chloro-benzyl)-ethylcarbamoyl]-2-hexyl-2H-pyrazole-3-carboxylic acid], the Ki is 0.0126 to 0.1 µM.

In the case of `O=C(O)C[C@@H](Cc1ccccc1Cl)NC(=O)c1cc(C(=O)O)n(CC(=O)O)n1` [Example 11-9, 5-[(R)-2-Carboxy-1-(2-chloro-benzyl)-ethylcarbamoyl]-2-carboxymethyl-2H-pyrazole-3-carboxylic acid], the Ki is 0.0126 to 0.1 µM.

Turning to `CC(Cn1nc(C(=O)N[C@@H](CC(=O)O)Cc2ccccc2Cl)cc1C(=O)O)C(=O)O` (stereo partly drawn) [Example 11-10, 5-[(R)-2-Carboxy-1-(2-chloro-benzyl)-ethylcarbamoyl]-2-(2-carboxy-propyl)-2H-pyrazole-3-carboxylic acid], the Ki is 0.0126 to 0.1 µM.

On to `O=C(O)C[C@@H](Cc1ccccc1Cl)NC(=O)c1cc(C(=O)O)n(Cc2ccncc2)n1` [Example 11-11, 5-[(R)-2-Carboxy-1-(2-chloro-benzyl)-ethylcarbamoyl]-2-pyridin-4-ylmethyl-2H-pyrazole-3-carboxylic acid], for which the Ki is 0.0126 to 0.1 µM.

For `O=C(O)C[C@@H](Cc1ccccc1C(F)(F)F)NC(=O)c1cc(C(=O)O)[nH]n1` [Example 12, 5-[(R)-2-Carboxy-1-(2-trifluoromethylbenzyl)-ethylcarbamoyl]-2H-pyrazole-3-carboxylic Acid], the Ki was 0.0126 to 0.1 µM.

These data come from patent US8993752B2, “Neprilysin inhibitors” (Theravance Biopharma R&D IP, LLC, priority 2011, dated 2015).
